{
  "source": "patent US10238710B2",
  "about": "“Peptide having anti-inflammatory, osteogenic and hair growth promoting activities, and use of same” (CAREGEN CO., LTD., priority 2014, dated 2019)",
  "key": {"IL-8": {"test_system": "IL-8", "test": "IL-8 ELISA in THP-1 cells treated with TNF-α", "format": "cell-based, human", "settings": "10 μg/ml pre-treatment 30 minutes, 50 ng/ml TNF-α, 24 hours", "description": "The human monocytes, THP-1 cells were seeded on a 24-well plate at a density of 2×10^6 cells/well. After incubation overnight, the cells were pre-treated with the samples at 10 μg/ml for 30 minutes, and treated with 50 ng/ml TNF-α, followed by incubation for 24 hours. The cell incubation medium was obtained, followed by centrifugation at 13,000 rpm for 10 minutes at 4° C., and then the supernatant was separated. ELISA was carried out using IL-1b and IL-8 ELISA kit (R&D system)."}, "HGFR": {"biological_target": "T1, HGFR (Homo sapiens, UniProt P08581)", "T1 construct": "purchased R&D Systems", "T1 sequence (P08581 25-1390)": "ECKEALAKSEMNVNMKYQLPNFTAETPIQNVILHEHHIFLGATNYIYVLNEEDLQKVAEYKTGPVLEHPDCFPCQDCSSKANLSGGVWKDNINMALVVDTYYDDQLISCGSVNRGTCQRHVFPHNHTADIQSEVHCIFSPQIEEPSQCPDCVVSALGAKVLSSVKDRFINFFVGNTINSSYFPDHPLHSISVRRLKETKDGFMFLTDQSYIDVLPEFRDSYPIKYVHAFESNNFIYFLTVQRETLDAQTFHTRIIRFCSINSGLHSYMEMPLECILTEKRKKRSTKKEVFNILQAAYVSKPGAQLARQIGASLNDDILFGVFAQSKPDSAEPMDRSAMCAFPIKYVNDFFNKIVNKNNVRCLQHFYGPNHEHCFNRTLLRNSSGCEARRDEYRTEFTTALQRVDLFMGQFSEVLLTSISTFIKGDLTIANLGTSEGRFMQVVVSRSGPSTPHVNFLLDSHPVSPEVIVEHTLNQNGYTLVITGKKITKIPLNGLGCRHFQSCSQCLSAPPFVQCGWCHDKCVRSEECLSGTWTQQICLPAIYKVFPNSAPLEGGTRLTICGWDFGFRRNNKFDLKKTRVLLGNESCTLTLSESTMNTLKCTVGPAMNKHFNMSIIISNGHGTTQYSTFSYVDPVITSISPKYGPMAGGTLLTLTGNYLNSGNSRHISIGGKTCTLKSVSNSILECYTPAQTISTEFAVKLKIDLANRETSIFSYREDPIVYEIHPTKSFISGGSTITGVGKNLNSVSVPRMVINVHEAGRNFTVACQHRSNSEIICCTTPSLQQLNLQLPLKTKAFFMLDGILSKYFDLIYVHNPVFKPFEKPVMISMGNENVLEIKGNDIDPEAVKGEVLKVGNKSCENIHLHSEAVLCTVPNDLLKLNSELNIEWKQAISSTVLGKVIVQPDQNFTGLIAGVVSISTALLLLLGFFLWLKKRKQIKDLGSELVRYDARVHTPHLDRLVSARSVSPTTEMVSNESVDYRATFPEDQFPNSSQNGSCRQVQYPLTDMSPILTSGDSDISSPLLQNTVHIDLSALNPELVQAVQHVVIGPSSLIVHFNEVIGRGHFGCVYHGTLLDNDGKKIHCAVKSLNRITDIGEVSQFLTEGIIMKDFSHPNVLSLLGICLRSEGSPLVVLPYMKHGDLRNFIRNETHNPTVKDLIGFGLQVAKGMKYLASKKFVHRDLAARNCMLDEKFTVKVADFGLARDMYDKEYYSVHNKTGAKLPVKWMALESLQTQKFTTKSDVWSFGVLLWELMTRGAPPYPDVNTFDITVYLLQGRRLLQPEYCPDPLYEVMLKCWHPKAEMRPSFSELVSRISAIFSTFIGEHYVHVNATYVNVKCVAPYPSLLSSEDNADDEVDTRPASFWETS", "test": "Receptor binding assay (HGFR), ELISA", "settings": "peptide coated 50 μg/25 μl, O.D. 450 nm", "description": "On an ELISA plate, 50 μg/25 μl peptide and 25 μl of a coating buffer (20 mM sodium phosphate pH 9.6) were added and mixed, and then incubated at 4° C. overnight. After washing three times with PBST (300 μl), the blocking with 200 μl of a blocking buffer (3% BSA) was carried out at room temperature for 2 hours. After washing three times with PBST (300 μl), HGFR (R&D Systems) was added at 0.5 μg/1 ml per well, followed by incubation at room temperature for 2 hours. After washing three times with PBST (300 μl), anti-human IgG-HRP was diluted at 1:1,000, which was then added at 100 μl per well, followed by incubation at room temperature for 2 hours. After washing three times with PBST (300 μl), 100 μl of TMB solution was added, followed by color development. 50 μl of a stop solution (3 N H2SO4) was added to stop the reaction, and then the absorbance was read at O.D. 450 nm."}, "Phospho-PI3K": {"test_system": "Phospho-PI3K", "test": "Western blotting using osteoblasts (PI3K phosphorylation)", "format": "cell-based", "settings": "mouse osteoblast line, 50 μg/ml, 15 minutes", "description": "The cells were treated with the peptides at 50 μg/ml for 15 minutes (positive control: HGF 50 ng/ml). The cells were treated with the cell lysis buffer to obtain a lysate, followed by protein quantification, and then western blotting was performed with respect to Phospho-PI3K (P-PI3K) using anti-pPI3K antibody (Santa Cruz Biotechnology, USA)."}, "MC3T3-E1 cells": {"test_system": "MC3T3-E1 cells", "test": "ALP staining of MC3T3-E1 cells", "format": "cell-based, mouse", "settings": "MC3T3-E1, 10 μg/ml and 50 μg/ml, 14 days", "description": "The mouse osteoblast line, MC3T3-E1 cells were seeded on a 24-well plate at 4×10^4 cells/well, and then incubated overnight. After the exchange with a medium containing 50 μg/ml ascorbic acid+10 mM b-glycerophosphate, the cells were treated with each peptide at concentrations of 10 μg/ml and 50 μg/ml, and incubated for 14 days to induce differentiation. Here, the medium exchange every three days and the treatment with the peptide were repeated (positive control: BMP2 […]). The incubation-completed plate well was washed two times with PBS, and then the cells were immobilized with an immobilization buffer, in which acetone, 37% formaldehyde, and citric acid solution were mixed, for 30 seconds. The following staining was carried out using the leukocyte alkaline phosphatase staining kit (SIGMA).\nThe cells were treated with a mixture, in which an FBB-alkaline solution was mixed with a sodium nitrite solution at 1:1, for 2 minutes, and then treated with a buffer composed of distilled water and naphthol AS-BI alkaline solution, followed by color development in an incubator at 37° C. for 1 hour."}, "osteoprotegerin (OPG)": {"test_system": "osteoprotegerin (OPG)", "test": "RT-PCR of osteogenic differentiation marker OPG", "format": "cell-based, mouse", "settings": "MC3T3-E1, three days"}, "PI3K": {"test_system": "PI3K", "test": "Western blotting of cell signaling material, PI3K", "format": "cell-based, human", "settings": "HFDPC, 1 and 10 μg/ml, 30 minutes and 60 minutes", "description": "In order to observe the changes in the phosphorylation of ERK and the expression of PI3K, which are main signaling materials involved in cell proliferation in the human hair follicle dermal papilla cells, the cells were treated with the peptides of the present invention for 30 minutes and 60 minutes, and then subjected to western blotting using specific antibodies, thereby observing the pERK and PI3K changes. The test was carried out using anti-pERK antibody (Santa Cruz Biotechnology, USA) and anti-pPI3K antibody (Santa Cruz Biotechnology, USA).\nThe cells were treated with the cell lysis buffer to obtain a lysate, followed by protein quantification, and then western blotting was performed with respect to Phospho-ERK (pERK), PI3K, and β-catenin."}, "IGF-1": {"test_system": "IGF-1", "test": "Western blotting of hair growth protein IGF-1", "format": "cell-based, human", "settings": "HFDPC, 0.1-50 μg/ml, 24 hours", "description": "(§1) In order to observe the changes in the expression of IGF1, KGF, and Wnt3a, which are proteins involved in the development of hair roots in the human hair follicle dermal papilla cells, the cells were treated with the peptides of the present invention for 24 hours, and then subjected to western blotting using specific antibodies, thereby observing the changes in hair growth-related proteins.\n(§2) The cells were stabilized by the incubation overnight, and then treated with the peptides at different concentrations (0.1-50 μg/ml) for 24 hours. The cells were treated with the cell lysis buffer to obtain a lysate, followed by protein quantification, and then western blotting was performed with respect to IGF-1, KGF, and Wnt3a.\n(§3) The test was carried out using anti-IGF-1 antibody (Santa Cruz Biotechnology, USA), anti-KGF antibody (Santa Cruz Biotechnology, USA), and anti-Wnt3a antibody (Santa Cruz Biotechnology, USA)."}, "KGF": {"test_system": "KGF", "test": "Western blotting of hair growth protein KGF", "format": "cell-based, human", "settings": "HFDPC, 0.1-50 μg/ml, 24 hours", "description": "as §1, §2, §3"}, "Wnt3a": {"test_system": "Wnt3a", "test": "Western blotting of hair growth protein Wnt3a", "format": "cell-based, human", "settings": "HFDPC, 0.1-50 μg/ml, 24 hours", "description": "as §1, §2, §3"}},
  "data": [
    {"substance": "NH2-Ala-Cys-Arg-Ser-Ala-Ile-Gly-Arg-Pro-Cys-COOH (H-ACRSAIGRPC-OH; cysteine pairing not given here) [SEQ ID NO: 1]", "values": [
      {"measurement": "expression of IL-8 increased by TNF-α treatment", "setting": "IL-8", "result": "inhibited"},
      {"measurement": "binding affinity on HGFR", "setting": "HGFR", "result": "high binding affinity"},
      {"measurement": "phosphorylation of PI3K by HGFR signal stimulation", "setting": "Phospho-PI3K", "result": "increased"},
      {"measurement": "ALP expression (ALP staining)", "setting": "MC3T3-E1 cells", "result": "increased"},
      {"measurement": "expression of osteoprotegerin (OPG)", "setting": "osteoprotegerin (OPG)", "result": "increased"},
      {"measurement": "level of PI3K", "setting": "PI3K", "result": "increased"},
      {"measurement": "expression of IGF-1", "setting": "IGF-1", "result": "increased"},
      {"measurement": "expression of KGF", "setting": "KGF", "result": "increased"},
      {"measurement": "expression of Wnt3a", "setting": "Wnt3a", "result": "increased"}
    ]}
  ]
}
